# Like-named read-outs stand apart in the source and are kept apart here.
# Key:
# [1] = cited from earlier work
# [2] = cited from earlier work; remark: listed apart in the source
# [3] = system: CINC-1/GROa protein levels of human blood micro vascular endothelial cells; test: CINC-1/GROa protein levels in supernatants of LPS-stimulated HMVEC (ELISA); format: cell-based; details: for CINC-1/GROa protein level in relation to LPS without any substance, Median: HMVEC, LPS 20 μg/ml 6 hours, positive control=100%
# Protocol: Table 1 CINC-1/GROa protein levels of human blood micro vascular endothelial cells measured in supernatants in relation to an exposition to LPS without any substance (positive control=100%)
# (§1) METHODS: Different molecules with CF3-group were tested against their corresponding non-fluorinated molecules. The group of molecules with CF3-group included hexafluoroisopropanol, 2,2,3,3,3-pentafluoro-1-propanol, 2,2,2-trifluorethanol, 3-amino-4,4,4-tri-fluorobutyroic acid, methyl-4,4,4-trifluoro-acetoacetate, methyl-trifluoro-acetamide, 5,5,5-trifluorleucine and Sevoflurane. In the group without CFx moieties 2-propanol, 1-propanol, ethanol, leucine, and diethyl ether were included. As well established model rat alveolar epithelial cells (AEC) and human blood microvascular cells (HMVEC) were exposed to phosphate-buffered saline (PBS, negative control) or LPS (20 μg/ml) for 6 hours (positive control). The influence of fluorinated compounds and non-fluorinated reference compounds on the inflammatory response of the cells was tested. Expression of rat-MCP-1 (BD Biosciences, San Diego, Calif.) and human CINC-1 GROa (R&D Systems Europe Ltd.) protein were analyzed by ELISA. Evaluation of possible cytotoxicity was done counting cells by means of fluorescence DNA quantification assays. At the same time release of lactate dehydrogenase into the supernatants was measured (LDH Assay, Promega, Madison, Wis., USA).
# [4] = system: MCP-1 levels of rat alveolar epithelial cells; test: MCP-1 levels in supernatants of LPS-stimulated rat alveolar epithelial cells (ELISA); format: cell-based
# Protocol: Table 2 MCP-1 levels of rat alveolar epithelial cells measured in supernatants in relation to an exposition to LPS without any substance (positive control=100%)
# as §1
# [5] = system: human microvascular endothelial cells (HMVEC); test: Viability and cytotoxicity in HMVEC (LDH release, fluorescence DNA quantification); format: cell-based; details: LDH release and cell count by fluorescence DNA quantification, in relation to control (100%), FIG. 1
# Protocol: Viability is assessed by measuring the release of lactate de-hydrogenase and cytotoxicity is quantified by counting cells by means of fluorescence DNA quantification assays (see example 1). […] Concentration level differences are presented in relation to control (100%).
# as §1
# [6] = system: inflammatory mediators and tissue damage markers (troponin or serum transaminase levels); details: patients undergoing lung, heart or liver surgery; cited from earlier work
# [7] = system: polymorphonuclear neutrophils; test: Chemotactic migration of polymorphonuclear neutrophils towards supernatants from LPS-stimulated endothelial cells; format: cell-based; details: 16 mmol/L, FIG. 2
# Protocol: Furthermore, the effect of hexafluoro-2-propanol in a concentration of 16 mmol/L on the chemotactic migration of polymorphonuclear neutrophils towards supernatants from LPS-stimulated endothelial cells (right side, 270)° and towards supernatants from LPS-stimulated endothelial cells incubated with hexafluoro-2-propanol (left side, 90°) was assessed according to (De Conno et al., Anesthesiology 2009; 110:1316-1326)
# [8] = Epithelial cell, rat AEC, LPS 20 μg/ml 6 hours, 16 mmol/l in culture medium, positive control=100%, read-out: MCP-1 level in relation to LPS without any substance, Median
# [9] = Epithelial cell, rat AEC, LPS 20 μg/ml 6 hours, 64 mmol/l in culture medium, positive control=100%, read-out: MCP-1 level in relation to LPS without any substance, Median
# [10] = rat AEC, LPS 20 μg/ml 6 hours, 16 mmol/l in culture medium, positive control=100%
# [11] = rat AEC, LPS 20 μg/ml 6 hours, 64 mmol/l in culture medium, positive control=100%
# [12] = Epithelial cell, rat AEC, LPS 20 μg/ml 6 hours, 32 mmol/l in culture medium, positive control=100%, read-out: MCP-1 level in relation to LPS without any substance, Median
# [13] = Rattus norvegicus, Epithelial cell, 6 h, read-out: MCP-1 level in relation to LPS without any substance, Median
# [14] = rat AEC, LPS 20 μg/ml 6 hours, 32 mmol/l in culture medium, positive control=100%
# [15] = footnote 1: Qiana et al., Journal of Chromatography A 2007
compound,measurement,setting,value
FC(F)(F)C(Cl)Br (centres unmarked) [Halothane],Octanol water partition coefficient,[1]; footnote 2: Urban et al. 1995,315
"OCC(F)(F)C(F)(F)F [2,2,3,3,3-Pentafluoro-1-propanol]",Solubility,[2]; 25° C.,21.9 g/L (25° C.)
same,"CINC-1/GROa protein level in relation to LPS without any substance, Median",[3]; 16 mmol/l in culture medium,115%
same,"CINC-1/GROa protein level in relation to LPS without any substance, Median",[3]; 32 mmol/l in culture medium,41%
same,"CINC-1/GROa protein level in relation to LPS without any substance, Median",[3]; 64 mmol/l in culture medium,31%
same,activity at 16000 µM,[4]; [8],92%
same,activity at 64000 µM,[4]; [9],70%
"CC(C)C[C@H](N)C(=O)O [Leucine, reference compound]",activity at 16000 µM,[4]; [8],91%
"CCCO [1-Propanol, reference compound]","CINC-1/GROa protein level in relation to LPS without any substance, Median",[3]; 16 mmol/l in culture medium,82%
same,"CINC-1/GROa protein level in relation to LPS without any substance, Median",[3]; 32 mmol/l in culture medium,81%
same,"CINC-1/GROa protein level in relation to LPS without any substance, Median",[3]; 64 mmol/l in culture medium,64%
same,"MCP-1 level in relation to LPS without any substance, Median",[4]; [10],99%
same,"MCP-1 level in relation to LPS without any substance, Median",[4]; [11],74%
"NC(CC(=O)O)C(F)(F)F (centres unmarked) [3-Amino-4,4,4-Trifluorobutyroic acid, 3-Amino-4,4,4-trifluorobutyric acid]","CINC-1/GROa protein level in relation to LPS without any substance, Median",[3]; 8 mmol/l in culture medium,79%
same,"CINC-1/GROa protein level in relation to LPS without any substance, Median",[3]; 16 mmol/l in culture medium,0%
same,"CINC-1/GROa protein level in relation to LPS without any substance, Median",[3]; 64 mmol/l in culture medium,0%
same,melting point,,180 to 190 °C
same,activity at 16000 µM,[4]; [8],101%
same,activity at 32000 µM,[4]; [12],44%
same,activity at 64000 µM,[4]; [9],0%
same,Viability and cytotoxicity in HMVEC,[5],does not cause significant cytotoxicity
Sevoflurane,Octanol water partition coefficient,[1]; footnote 2: Urban et al. 1995,71
same,Inflammatory mediators and tissue damage markers in patients,[6],significantly reduces
same,"MCP-1 level in relation to LPS without any substance, Median",[4]; [11],68%
"CNC(=O)C(F)(F)F [Methyltrifluoroacetamide, N-Methyl-2,2,2-trifluoroacetamide]",activity at 8000 µM,[4]; [13],80%
same,activity at 16000 µM,[4]; [13],56%
same,activity at 32000 µM,[4]; [13],41%
same,activity at 64000 µM,[4]; [13],0%
Enflurane,Octanol water partition coefficient,[1]; footnote 2: Urban et al. 1995,122
FC(F)OC(F)C(F)(F)F (centres unmarked) [Desflurane],Octanol water partition coefficient,[1]; footnote 2: Urban et al. 1995,28.5
same,Inflammatory mediators and tissue damage markers in patients,[6],significantly reduces
"CC(C)O [2-Propanol, reference compound]","CINC-1/GROa protein level in relation to LPS without any substance, Median",[3]; 4 mmol/l in culture medium,109%
same,"CINC-1/GROa protein level in relation to LPS without any substance, Median",[3]; 16 mmol/l in culture medium,97%
same,"MCP-1 level in relation to LPS without any substance, Median",[4]; [10],101%
same,"MCP-1 level in relation to LPS without any substance, Median",[4]; [14],86%
same,"MCP-1 level in relation to LPS without any substance, Median",[4]; [11],82%
"CC(N)CC(=O)O (racemic) [DL-3-Amino-n-butyric acid, reference compound]","MCP-1 level in relation to LPS without any substance, Median","[4]; rat AEC, LPS 20 μg/ml 6 hours, 8 mmol/l in culture medium, positive control=100%",95%
same,"MCP-1 level in relation to LPS without any substance, Median",[4]; [10],91%
same,"MCP-1 level in relation to LPS without any substance, Median",[4]; [14],149%
same,"MCP-1 level in relation to LPS without any substance, Median",[4]; [11],117%
"OC(C(F)(F)F)C(F)(F)F [Hexafluoroisopropanol, 1,1,1,3,3,3-Hexafluoropropan-2-ol]",Solubility,[2]; 25° C.,1000 g/L (25° C.)
same,Chemotaxis for neutrophils,[7],significantly attenuated chemotaxis
same,"CINC-1/GROa protein level in relation to LPS without any substance, Median",[3]; 4 mmol/l in culture medium,49%
same,"CINC-1/GROa protein level in relation to LPS without any substance, Median",[3]; 16 mmol/l in culture medium,26%
same,CINC-1 levels of endothelial cells stimulated with LPS (in words),[3]; LPS stimulation,decrease was most pronounced
same,Octanol water partition coefficient,[1]; [15],0.37 ^(1)
same,activity at 4000 µM,"[4]; Epithelial cell, rat AEC, LPS 20 μg/ml 6 hours, 4 mmol/l in culture medium, positive control=100%, read-out: MCP-1 level in relation to LPS without any substance, Median",98%
same,activity at 8000 µM,"[4]; Epithelial cell, rat AEC, LPS 20 μg/ml 6 hours, 8 mmol/l in culture medium, positive control=100%, read-out: MCP-1 level in relation to LPS without any substance, Median",101%
same,activity at 16000 µM,[4]; [8],63%
same,activity at 32000 µM,[4]; [12],11%
same,MCP-1 levels of epithelial cells stimulated with LPS (in words),[4]; LPS stimulation,decrease was most pronounced
same,Viability and cytotoxicity in HMVEC,[5],does not cause significant cytotoxicity
"OCC(F)(F)F [2,2,2-Trifluorethanol, 2,2,2-Trifluoroethanol]",Solubility,[2]; in words,miscible
same,"CINC-1/GROa protein level in relation to LPS without any substance, Median",[3]; 16 mmol/l in culture medium,98%
same,"CINC-1/GROa protein level in relation to LPS without any substance, Median",[3]; 32 mmol/l in culture medium,78%
same,"CINC-1/GROa protein level in relation to LPS without any substance, Median",[3]; 64 mmol/l in culture medium,73%
same,Octanol water partition coefficient,[1]; [15],0.17 ^(1)
same,activity at 16000 µM,[4]; [8],58%
same,activity at 64000 µM,[4]; [9],59%
same,Viability and cytotoxicity in HMVEC,[5],does not cause significant cytotoxicity
FC(F)OC(Cl)C(F)(F)F (centres unmarked) [Isoflurane],Octanol water partition coefficient,[1]; footnote 2: Urban et al. 1995,156
same,Inflammatory mediators and tissue damage markers in patients,[6],significantly reduces
"COC(=O)CC(=O)C(F)(F)F [Methyl-4,4,4-trifluoro-acetoacetate]",activity at 16000 µM,[4]; [8],7%
same,activity at 32000 µM,[4]; [12],0%
"CCO [Ethanol, reference compound]","CINC-1/GROa protein level in relation to LPS without any substance, Median",[3]; 16 mmol/l in culture medium,107%
same,"CINC-1/GROa protein level in relation to LPS without any substance, Median",[3]; 32 mmol/l in culture medium,91%
same,"CINC-1/GROa protein level in relation to LPS without any substance, Median",[3]; 64 mmol/l in culture medium,88%
same,activity at 16000 µM,[4]; [8],103%
same,activity at 64000 µM,[4]; [9],92%
"ClC(Cl)Cl [Chloroform, reference compound]",activity at 64000 µM,[4]; [13],171%
"CC(C[C@H](N)C(=O)O)C(F)(F)F (some centres unmarked) [5,5,5-Trifluorleucine]","MCP-1 level in relation to LPS without any substance, Median",[4]; [10],68%

# From US20120219596A1, “INJECTABLE FORMULATION FOR TREATMENT AND PROTECTION OF PATIENTS HAVING AN INFLAMMATORY REACTION OR AN ISCHEMIA-REPERFUSION EVENT” (ETH Zurich, priority 2009, published 2012)
